Here are results for 25 compounds from publication PMC6713233 (Toxicology in vitro : an international journal published in …, 2019).

The IC50 is the point on the concentration scale where inhibition reaches its midpoint.

Series [1] addresses T1, recombinant human AChE (Homo sapiens, UniProt P22303). Nature of the series: biochemical. Format: biochemical. Conditions: for Emax: read-out: efficacy (%), Fluorescence.
In series [2] the target is T1, recombinant human AChE. The series is described as follows: biochemical. Format: biochemical. Conditions: for Emax: read-out: efficacy (%), Colorimetric.
The subject of the next series is cholinesterase. Conditions: following exposure; rats, mice, birds, fish, and farm animals; ref International Programme on Chemical Safety, 1989; cited from earlier work.
Series [3] deals with T1, recombinant human AChE. The series is described as follows: biochemical. It counts as biochemical. The conditions noted are these: for Emax: read-out: efficacy (%), Colorimetric, +Rat MS.
Series [4] addresses T1, recombinant human AChE. The series is described as follows: biochemical. Format: biochemical. Conditions: for Emax: read-out: efficacy (%), Fluorescence, +Rat MS.
For the next series, the system named is AChE. Conditions: following exposure; ref International Programme on Chemical Safety, 1989; cited from earlier work.
For series [5], the target named is T1, recombinant human AChE. Nature of the series: biochemical.
Series [6] concerns the target T1, recombinant human AChE. Format: biochemical.
The mark [7] stands for this setting: IC50 (μM), Colorimetric, +Human MS.

Values joined by “and” are separate entries in the source; they are usually repeats but may differ in a detail not shown here. Equal values may be shown once. Read-outs that look alike come from different tables or passages of the source.

T1 sequence (P22303 32-614): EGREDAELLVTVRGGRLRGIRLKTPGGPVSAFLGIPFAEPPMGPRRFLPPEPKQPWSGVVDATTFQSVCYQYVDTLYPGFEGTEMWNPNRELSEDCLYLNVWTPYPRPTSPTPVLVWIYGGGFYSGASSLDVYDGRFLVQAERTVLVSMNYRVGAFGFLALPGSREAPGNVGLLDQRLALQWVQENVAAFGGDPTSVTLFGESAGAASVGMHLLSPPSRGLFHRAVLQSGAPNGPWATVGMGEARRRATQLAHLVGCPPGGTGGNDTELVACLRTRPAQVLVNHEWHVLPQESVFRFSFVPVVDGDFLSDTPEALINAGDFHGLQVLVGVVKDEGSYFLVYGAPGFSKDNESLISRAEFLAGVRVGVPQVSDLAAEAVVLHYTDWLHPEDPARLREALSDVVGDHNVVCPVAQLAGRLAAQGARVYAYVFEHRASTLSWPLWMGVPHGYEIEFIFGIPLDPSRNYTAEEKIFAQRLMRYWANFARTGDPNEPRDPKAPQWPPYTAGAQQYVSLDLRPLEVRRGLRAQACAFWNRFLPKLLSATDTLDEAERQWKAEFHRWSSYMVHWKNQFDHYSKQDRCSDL

On to `COP(=O)(OC)OC(Br)C(Cl)(Cl)Br` (stereo not shown) [Naled], for which the “IC50 (μM), Fluorescence” value at recombinant human AChE [1] is “Inactive”. Moreover, on recombinant human AChE [2], the IC50 is 61.3 µM and the Emax is 46.5%.

`CCCCSP(=O)(SCCCC)SCCCC` [Tribufos]: the Emax at recombinant human AChE [1] is 60.8%. In addition, the “IC50 (μM), Colorimetric” value on recombinant human AChE [2] is “Inactive”.

On to `CCCSP(=O)(OCC)SCCC` [Ethoprop], for which the Emax on recombinant human AChE [2] was 43.4%.

For `CCOC(=O)CC(SP(=O)(OC)OC)C(=O)OCC` (stereo not shown) [Malaoxon], the figures for the Emax on recombinant human AChE [1] and on recombinant human AChE [2] were 95.2% and 91.1%, respectively.

In the case of `CNC(=O)CSP(=S)(OC)OC` [Dimethoate], the “cholinesterase activity in animals” value in the series on cholinesterase is reported as “cholinesterase activity was inhibited”. In addition, the “IC50 (μM), Colorimetric, +Rat MS” value on recombinant human AChE [3] is recorded as “Inactive”. The “IC50 (μM), Fluorescence” value at recombinant human AChE [1] is “Inactive”. Moreover, the “IC50 (μM), Fluorescence, +Rat MS” value at recombinant human AChE [4] is on record as “Inactive”. Moreover, in the series with AChE, the “AChE inhibition in human volunteers” value is recorded as “no AChE inhibition was observed”. Also, the “IC50 (μM), Colorimetric” value on recombinant human AChE [2] is recorded as “Inactive”. For the same compound, at recombinant human AChE [5], the “IC50 (μM), Colorimetric, +Human MS” value is “Inactive”. Moreover, at recombinant human AChE [6], the “IC50 (μM), Fluorescence, +Human MS” value is given as “Inactive”.

For the compound `CCOP(=O)(OCC)Oc1cc(C)nc(C(C)C)n1` [Diazoxon], the Emax is 77.7% at recombinant human AChE [1] and 95.2% on recombinant human AChE [2]. The half-maximal inhibitory concentration (IC50) at recombinant human AChE [2] came out at 1.33 µM.

For the compound `COP(N)(=O)SC` (stereo not shown) [Methamidophos], the Emax was 103% on recombinant human AChE [1] and 38.7% on recombinant human AChE [2].

As for `COP(=S)(OC)SCN1C(=O)c2ccccc2C1=O` [Phosmet], the “IC50 (μM), Colorimetric, +Rat MS” value on recombinant human AChE [3] is “Inactive”. The results for the Emax on recombinant human AChE [1] and on recombinant human AChE [4] were 65.3% and 43.5%, respectively. For the same compound, the “IC50 (μM), Colorimetric” value at recombinant human AChE [2] is “Inactive”. Moreover, the “IC50 (μM), Colorimetric, +Human MS” value on recombinant human AChE [5] is listed as “Inactive”. The “IC50 (μM), Fluorescence, +Human MS” value on recombinant human AChE [6] was “Inactive”.

On to `CCOP(=S)(OCC)Oc1ccc2c(C)c(Cl)c(=O)oc2c1` [Coumaphos], for which the Emax was 96.5% on recombinant human AChE [3], 83.3% on recombinant human AChE [1] and 95% on recombinant human AChE [4]. Further, the “IC50 (μM), Colorimetric” value at recombinant human AChE [2] was “Inactive”. Also, on recombinant human AChE [5], the “efficacy (%), Colorimetric, +Human MS” value is 8.06±1.94 (−98.15±5.15) %. Besides, the IC50 on recombinant human AChE [5] (setting [7]) was found to be 8.06 µM. Further, the “efficacy (%), Fluorescence, +Human MS” value on recombinant human AChE [6] was 12.95±1.05 (−67.18±4.87) %.

For the compound `CCOP(=O)(SC(C)CC)N1CCSC1=O` (stereo not shown) [Fosthiazate], at recombinant human AChE [1], the “IC50 (μM), Fluorescence” value was “Inactive” and the “inhibitory effect on AChE activity (in words)” value (“inhibitory effect” for short) was “did not show inhibition effects”. On recombinant human AChE [2], the “IC50 (μM), Colorimetric” value is on record as “Inactive” and the “inhibitory effect” value is listed as “did not show inhibition effects”.

Turning to `CCOP(=S)(OCC)SCSC(C)(C)C` [Terbufos], the Emax on recombinant human AChE [3] was 95.7%; at recombinant human AChE [4] it was 85.3%. The “IC50 (μM), Fluorescence” value on recombinant human AChE [1] is given as “Inactive”. Further, the “IC50 (μM), Colorimetric” value on recombinant human AChE [2] is reported as “Inactive”. The “efficacy (%), Colorimetric, +Human MS” value at recombinant human AChE [5] is on record as 31.74±5.73 (−57.67±2.16) %. Besides, at recombinant human AChE [5] (setting [7]), the IC50 was 31.7 µM. The “IC50 (μM), Fluorescence, +Human MS” value on recombinant human AChE [6] is recorded as “Inactive”.

For `CCOC(=O)CC(SP(=S)(OC)OC)C(=O)OCC` (stereo not shown) [Malathion], the Emax at recombinant human AChE [3] is 59.4%; at recombinant human AChE [1], 77%. For the same compound, the “IC50 (μM), Fluorescence, +Rat MS” value on recombinant human AChE [4] was “Inactive”. In addition, at recombinant human AChE [2], the “IC50 (μM), Colorimetric” value is recorded as “Inactive”. Also, the “IC50 (μM), Colorimetric, +Human MS” value at recombinant human AChE [5] was “Inactive”. In addition, on recombinant human AChE [6], the “IC50 (μM), Fluorescence, +Human MS” value is “Inactive”.

For the compound `COP(=O)(OC)O/C(C)=C/C(=O)N(C)C` [Dicrotophos], the results for the Emax on recombinant human AChE [1] and on recombinant human AChE [2] were 82.7% and 32.5%, respectively.

Consider `COP(=O)(NC(C)=O)SC` (stereo not shown) [Acephat], for which the “IC50 (μM), Fluorescence” value at recombinant human AChE [1] is on record as “Inactive”. Moreover, the “IC50 (μM), Colorimetric” value on recombinant human AChE [2] was “Inactive”.

Consider `CCN(CC)c1nc(C)cc(OP(=S)(OC)OC)n1` [Pirimiphos-methyl], for which, at recombinant human AChE [3], the “IC50 (μM), Colorimetric, +Rat MS” value is on record as “Inactive”. The “IC50 (μM), Fluorescence” value on recombinant human AChE [1] was “Inactive”. Moreover, on recombinant human AChE [4], the IC50 turned out to be 41.7 µM and the Emax came out at 42%. Besides, the “IC50 (μM), Colorimetric” value at recombinant human AChE [2] is “Inactive”. Further, the “IC50 (μM), Colorimetric, +Human MS” value at recombinant human AChE [5] was “Inactive”. In addition, at recombinant human AChE [6], the “IC50 (μM), Fluorescence, +Human MS” value is listed as “Inactive”.

In the case of `CNC(=O)CSP(=O)(OC)OC` [Omethoate], at recombinant human AChE [1], the IC50 came to 68.9 µM and the Emax was 46.3%. Also, at recombinant human AChE [2], the “IC50 (μM), Colorimetric” value was “Inactive”.

As to `CCOP(=S)(OCC)SCSCC` [Phorate], the Emax on recombinant human AChE [3] is 96.3%; at recombinant human AChE [1], 44.4%; at recombinant human AChE [4] it was 72%. Also, the “IC50 (μM), Colorimetric” value at recombinant human AChE [2] is on record as “Inactive”. Also, the “IC50 (μM), Colorimetric, +Human MS” value at recombinant human AChE [5] is on record as “Inactive”. In addition, at recombinant human AChE [5], the “inhibitory effect” value is “did not show inhibitory effects”. On recombinant human AChE [6], the “IC50 (μM), Fluorescence, +Human MS” value is given as “Inactive”.

As for `CCOP(=S)(OCC)OC(Cl)C(Cl)(Cl)Cl` (stereo not shown) [Chlorethoxyfos], the Emax on recombinant human AChE [3] was 105%; on recombinant human AChE [1], 99.2%; on recombinant human AChE [4], 100%; on recombinant human AChE [2], 46.3%. In addition, the “efficacy (%), Colorimetric, +Human MS” value at recombinant human AChE [5] is on record as 10.88±0.00 (−102.91±1.64) %. On recombinant human AChE [5] (setting [7]), the half-inhibitory concentration (IC50) was 10.9 µM. Moreover, the “efficacy (%), Fluorescence, +Human MS” value at recombinant human AChE [6] was 31.57±8.80 (−99.07±7.79) %.

On to `COP(=O)(OC)C(O)C(Cl)(Cl)Cl` (stereo not shown) [Trichlorfon], for which the Emax at recombinant human AChE [1] was 91.5%; on recombinant human AChE [2] it was 30%.

In the case of `CCOP(=S)(Oc1cnc(C(C)(C)C)nc1)OC(C)C` (stereo not shown) [Tebupirimfos], the Emax at recombinant human AChE [3] was 100%; on recombinant human AChE [1] it was 90.4%; at recombinant human AChE [4] it was 91%; at recombinant human AChE [2] it was 53%. Moreover, at recombinant human AChE [5], the “efficacy (%), Colorimetric, +Human MS” value is listed as 14.39±2.31 (−95.21±2.02) %. Moreover, at recombinant human AChE [5] (setting [7]), the IC50 is 14.4 µM. In addition, the “efficacy (%), Fluorescence, +Human MS” value at recombinant human AChE [6] was 48.81±5.61 (−70.67±3.28) %.

Take `CCOP(=S)(OCC)Oc1cc(C)nc(C(C)C)n1` [Diazinon]: the Emax at recombinant human AChE [3] is 73.1%; at recombinant human AChE [1], 96.3%; at recombinant human AChE [2], 102%. On recombinant human AChE [4], the “IC50 (μM), Fluorescence, +Rat MS” value is “Inactive”. The “IC50 (μM), Colorimetric, +Human MS” value on recombinant human AChE [5] is given as “Inactive”. For the same compound, the “efficacy (%), Fluorescence, +Human MS” value on recombinant human AChE [6] was 113.22±7.66 (−71.22±6.26) %.

Regarding `CCCSP(=O)(OCC)Oc1ccc(Br)cc1Cl` (stereo not shown) [Profenofos], the figures for the Emax on recombinant human AChE [1] and at recombinant human AChE [2] were 93.7% and 83.2%, respectively.

For `COP(=O)(OC)OC=C(Cl)Cl` [Dichlorvos], the Emax on recombinant human AChE [1] is 76.8%; at recombinant human AChE [2], 34.9%.

On to `CCOP(=S)(OCC)Oc1nc(Cl)c(Cl)cc1Cl` [Chlorpyrifos], for which the Emax is 98.8% at recombinant human AChE [3], 100% on recombinant human AChE [1] and 89.8% at recombinant human AChE [4]. The “IC50 (μM), Colorimetric” value at recombinant human AChE [2] is recorded as “Inactive”. Also, at recombinant human AChE [5], the “efficacy (%), Colorimetric, +Human MS” value is 1.71±0.47 (−93.65±1.00) %. Also, on recombinant human AChE [5], the “inhibition of AChE activity” value is reported as “did not inhibit AChE activity”. Moreover, the IC50 at recombinant human AChE [5] (setting [7]) was 1.71 µM; on recombinant human AChE [5] (IC50, inhibition of AChE) it was 1.31 µM and 0.78 µM and 0.8 µM. In addition, the “efficacy (%), Fluorescence, +Human MS” value on recombinant human AChE [6] is recorded as 1.22±0.00 (−102.89±2.97) %.

With `COP(=O)(OC)O/C(=C\Cl)c1cc(Cl)c(Cl)cc1Cl` [Z-Tetrachlorvinphos], the Emax at recombinant human AChE [1] is 75.7%. For the same compound, the “IC50 (μM), Colorimetric” value at recombinant human AChE [2] is recorded as “Inactive”.
